Test results: patent US8039668B2, “Naphthalene-based inhibitors of anti-apoptotic proteins” (Burnham Institute for Medical Research, priority 2008, dated 2011)
pEC50, pIC50, pKd: −log10 of the molar value. Where two headings read alike, the source gives them in different places. Values belong to the compound of their own block, whether it stands above or below them.

What was measured:
[1] = molecular target: T1, BCL-XL (Homo sapiens, UniProt Q07817); assay: 1D 1H-NMR binding assay; set-up: key to 1D-^1H NMR: +++, Very Active; ++, Active; +, Mild; −, Weak; conditions: for 1D ^1H-NMR Binding Assay (BCL-XL): Table 9; for 1D-^1H NMR: BCL-XL 25 μM, compound 200 μM
Protocol: By observing the aliphatic region of the spectra, binding could be readily detected due to chemical shift changes in active site methyl groups of Ile, Leu, Thr, Val or Ala (region between −0.8 and 0.3 ppm). All experiments were performed with a 600 MHz spectrometer Bruker Avance 600 equipped with four rf channels and z-axis pulse-field gradients.
Target sequence in this assay (Q07817 whole entry): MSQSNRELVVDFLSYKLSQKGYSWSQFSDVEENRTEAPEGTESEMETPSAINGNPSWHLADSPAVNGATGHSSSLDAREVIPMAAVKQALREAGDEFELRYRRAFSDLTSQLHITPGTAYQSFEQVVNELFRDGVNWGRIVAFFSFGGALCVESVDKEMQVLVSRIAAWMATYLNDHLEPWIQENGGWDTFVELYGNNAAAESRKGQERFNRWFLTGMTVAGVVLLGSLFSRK

[2] = tested on: H1299 cell line; assay: Cell viability, ATP-LITE assay; type: cell-based, human; conditions: Homo sapiens
In short: (§1)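 Human cancer lines were seeded at 2000 (H460, H1299), 3000 (PC3) or 10,000 (RS11846) cells/well in F12 or RPMI1640 with 5% FBS. Compounds were added in 0.1% DMSO 24 h after seeding. Viability was read by ATP-LITE luminescence after 72 h and normalized to DMSO controls.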

[3] = tested on: PC3ML cells; assay: Cell viability, ATP-LITE assay; type: cell-based, human; conditions: for pEC50: Homo sapiens, PC3-ML
In short: as §1

[4] = tested on: H460 human lung cell line; assay: Cell viability, ATP-LITE assay; type: cell-based; conditions: for pEC50: Homo sapiens
In short: as §1

[5] = tested on: RS11846 cell line; assay: Cell viability, ATP-LITE assay; type: cell-based; conditions: Homo sapiens, Table 9; read-out: RS11846 EC50 (ATP-LITE assay)
In short: as §1

[6] = tested on: human lymphoma RS11846 cell line; assay: Apoptosis, Annexin V-FITC and propidium iodide assay; type: cell-based; conditions: Homo sapiens
Protocol: The apoptotic activity of the compounds against RS11846 cells was assessed by staining with Annexin V- and propidium iodide (PI). Lymphoma cell line, RS11846, was cultured in RPMI 1640 medium (Mediatech Inc., Herndon, Va. 20171) containing 10% fetal bovine serum (Mediatech Inc., Herndon, Va. 20171) and Penicillin/Streptomycin (Mediatech Inc., Herndon, Va. 20171). […] The percentage of viable cells was determined by FITC-Annexin V- and propidium iodide (PI)-labeling, using an Apoptosis Detection kit (BioVision Inc.), and analyzing stained cells by flow cytometry (FACSort; Bectin-Dickinson, Inc.; Mountain View, Calif.). Cells that were annexin-V-negative and PI-negative were considered viable.

[7] = PAMPA cell membrane permeability; type: in vitro ADME; conditions: Table 11; Low/Medium, not defined
Excerpt: PAMPA is parallel artificial membrane permeation assay.

[8] = molecular target: T1, BCL-XL; assay: Competitive fluorescence polarization assay (FPA), Bak BH3 peptide; type: binding; set-up: 100 nM GST-BCL-XL ΔTM protein
Protocol: For competitive binding assays, 100 nM GST-BCL-XL ΔTM protein was preincubated with the tested compound at varying concentrations in 47.5 μL PBS (pH=7.4) in 96-well black plates at room temperature for 10 min, then 2.5 μL of 100 nM FITC-labeled Bak BH3 peptide was added to produce a final volume of 50 μL. The wild-type and mutant Bak BH3 peptides were included in each assay plate as positive and negative controls, respectively. […] IC50 was determined by fitting the experimental data to a sigmoidal dose-response nonlinear regression model (SigmaPlot 10.0.1, Systat Software, Inc., San Jose, Calif., USA). Data reported are mean of three independent experiments±standard error (SE). […] Fluorescence polarization was measured after 10 min.
Target sequence in this assay (Q07817 1-209 limits assumed): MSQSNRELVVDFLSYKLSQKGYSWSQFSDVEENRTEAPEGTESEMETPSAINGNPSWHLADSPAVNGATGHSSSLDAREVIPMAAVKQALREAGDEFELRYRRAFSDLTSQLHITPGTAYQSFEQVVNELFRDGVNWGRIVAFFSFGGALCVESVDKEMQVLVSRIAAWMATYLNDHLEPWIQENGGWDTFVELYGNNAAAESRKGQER

[9] = molecular target: Bcl-2 (Homo sapiens, UniProt P10415); assay: Competitive fluorescence polarization assay (FPA), Bim BH3 peptide; type: binding
Chain of Bcl-2 (P10415 whole entry): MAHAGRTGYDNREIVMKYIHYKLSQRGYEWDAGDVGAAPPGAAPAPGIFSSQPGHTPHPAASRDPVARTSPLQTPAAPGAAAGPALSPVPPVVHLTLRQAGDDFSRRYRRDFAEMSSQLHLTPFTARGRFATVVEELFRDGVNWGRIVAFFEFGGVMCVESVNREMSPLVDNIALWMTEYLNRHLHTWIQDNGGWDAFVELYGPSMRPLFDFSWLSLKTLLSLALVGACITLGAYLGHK

[10] = molecular target: Mcl-1 (Homo sapiens, UniProt Q07820); assay: as above; type: binding
Chain of Mcl-1 (Q07820 whole entry): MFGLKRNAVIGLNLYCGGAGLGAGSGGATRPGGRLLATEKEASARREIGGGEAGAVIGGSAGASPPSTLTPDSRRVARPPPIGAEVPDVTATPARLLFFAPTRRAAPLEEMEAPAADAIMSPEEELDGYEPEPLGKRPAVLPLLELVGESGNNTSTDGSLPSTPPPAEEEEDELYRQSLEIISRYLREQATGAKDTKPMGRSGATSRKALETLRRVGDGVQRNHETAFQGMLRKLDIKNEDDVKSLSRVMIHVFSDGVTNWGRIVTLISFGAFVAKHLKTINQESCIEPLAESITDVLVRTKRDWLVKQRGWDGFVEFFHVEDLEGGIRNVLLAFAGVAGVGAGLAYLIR

[11] = molecular target: T2, Bfl-1 (Homo sapiens, UniProt Q16548); assay: Competitive fluorescence polarization assay (FPA); type: binding
T2 sequence (Q16548 1-175): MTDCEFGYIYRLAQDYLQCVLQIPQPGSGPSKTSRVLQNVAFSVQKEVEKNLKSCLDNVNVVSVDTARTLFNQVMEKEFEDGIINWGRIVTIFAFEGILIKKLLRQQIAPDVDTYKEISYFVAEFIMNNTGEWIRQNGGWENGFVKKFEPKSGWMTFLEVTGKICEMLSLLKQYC

[12] = molecular target: T1, BCL-XL; assay: Isothermal titration calorimetry (ITC); type: binding
Protocol: Titrations were performed using a VP-ITC or ITC200 calorimeter from Microcal (Northampton, Mass.). BCL-XL was used at concentrations between 25 and 100 μM in 20 mM sodium phosphate buffer (pH 7.4) and 5-10% DMSO. Titrants were used at concentrations 10-15 fold of that of the protein in the same buffer. Titrations were carried out at 25° C. Data were analyzed using Microcal Origin software provided by the ITC manufacturer (Microcal, Northampton, Mass.).
Target sequence in this assay (Q07817 whole entry): as the sequence (Q07817 whole entry) above

[13] = tested on: BP3 human B-cell lymphoma cell line; assay: Annexin V-FITC and propidium iodide assay; type: cell-based; conditions: Homo sapiens, B-cell, read-out: EC50 BP3
[14] = tested on: Bax/Bak double knockout mouse embryonic fibroblast cells (MEF/DKO); assay: FITC-Annexin V/PI cytotoxicity in Bax/Bak double knockout cells; type: cell-based; conditions: 10 μM
Protocol: MEF/WT and MEF/DKO cells were seeded in 24-well plate at a seeding density of half a million per well (in 1 ml of DMEM medium supplemented by 10% FCS). […] On the following day, floating cells were pooled with adherent cells harvested after brief incubation with 0.25% Trypsin/EDTA solution (Gibco/In-Vitrogen Inc.). Cells were centrifuged and supernatant was discarded, and cell pellet was re-suspended with 0.2 ml of Annexin-V binding buffer, followed by addition of 1 μl Annexin-FITC and 1 μl PI (propidium iodide). The percentage of viable cells was determined by a 3-color FACSort instrument and data analyzed by Flow-Jo program, scoring Annexin V-negative, PI-negative as viable cells.

[15] = Plasma stability; type: in vitro ADME, rat; conditions: for Plasma stability (T = 1 h): Table 6, rat plasma
Protocol: Plasma Stability. A 20 μL aliquot of a 10 mM solution in DMSO of the test compound was added to 2.0 mL of heparinized rat plasma (Lampire, P1-150N) to obtain a 100 μM final solution. The mixture was incubated for 1 h at 37.5° C. Aliquots of 100 μL were taken (0, 30 min, 1 h) and diluted with 200 μL of MeOH containing internal standard.

[16] = Liver microsomal stability; type: in vitro ADME, rat; conditions: for Microsomal Stability (T = 1 h): Table 6, rat liver microsomes
Excerpt: Liver Microsomal Stability.

[17] = tested on: B6Bcl-2 transgenic mice; conditions: for Tox: Bcl-2 transgenic mouse, single ip injection 72 μmol/kg
Protocol: Transgenic mice expressing BCL-2 have been described as the B6 line. The BCL-2 transgene res a minigene version of a t(14;18) translocation in which the human BCL-2 gene is fused with the immunoglobulin heavy-chain (IgH) locus and associated IgH enhancer. The transgene was propagated on the Balb/c background.
After 24 hours, B6BCL2 mice were sacrificed by intraperitoneal injection of lethal dose of Avertin. Spleen was removed and weighed. […] Spleen tissue was fixed in z-FIX for 3 days and rinsed in PBS, and saved for histological analysis of spleen (H&E staining and TUNEL assay).

[18] = NCI-H1299, Table 9, read-out: H1299 EC50
[19] = NCI-H460, Table 9, read-out: H460 EC50
[20] = Table 9, read-out: RS11846 EC50 (Annexin V- and propidium iodide assay)
[21] = Table 9, read-out: FPA IC50 (BCL-XL)

1D ^1H-NMR Binding Assay (BCL-XL) [1]: +
pEC50 [2, 18]: 5.62
pEC50 ([3]; Table 9, read-out: PC3ML EC50): 5.52
pEC50 [4, 19]: 6.23
pEC50 [6, 20]: 5.26 to 5.52
Cell Permeability [7]: Low
pIC50 [8, 21]: 6.80
Compound: Cc1cc2c(C(=O)c3cccc4ccccc34)c(O)c(O)cc2c(O)c1-c1c(C)cc2c(C(=O)c3cccc4ccccc34)c(O)c(O)cc2c1O [Compound VIII, (1,1′,6,6′,7,7′-hexahydroxy-3,3′-dimethyl-2,2′-binaphthyl-5,5′-diyl)bis(naphthalen-1-ylmethanone)]
pEC50 [5]: 5.74

Compound: Cc1cc2c(C(=O)c3nc4ccccc4s3)c(O)c(O)cc2c(O)c1-c1c(C)cc2c(C(=O)c3nc4ccccc4s3)c(O)c(O)cc2c1O [Compound XVII, (1,1′,6,6′,7,7′-hexahydroxy-3,3′-dimethyl-2,2′-binaphthyl-5,5′-diyl)bis(benzo[d]thiazol-2-ylmethanone)]
1D ^1H-NMR Binding Assay (BCL-XL) [1]: +
pEC50 [2, 18]: 5.24
pEC50 ([3]; Table 9, read-out: PC3ML EC50): 5.28
pEC50 [4, 19]: 5.85
pEC50 [5]: 5.54
pEC50 [6, 20]: 5.15
Cell Permeability [7]: Medium
pIC50 [8, 21]: 6.35 to 6.85

Compound: Cc1cc2c(CCc3ccccc3)c(O)c(O)cc2c(O)c1-c1c(C)cc2c(CCc3ccccc3)c(O)c(O)cc2c1O [Compound 12e, 3,3′-dimethyl-5,5′-diphenethyl-2,2′-binaphthyl-1,1′,6,6′,7,7′-hexaol]
1D-^1H NMR ([1]; Table 4): +
pIC50 [9]: 6.32
pIC50 [10]: 6.08
pIC50 [11]: 5.30
pKd [12]: 6.39
pEC50 ([2]; NCI-H1299, read-out: EC50 H1299): 6.24
pEC50 ([3]; read-out: EC50 PC3ML, ATP-LITE assay): 5.62
pEC50 ([4]; NCI-H460, read-out: EC50 H460): 6.04
pEC50 ([6]; read-out: EC50 RS11846, Annexin V-FITC and propidium iodide assay): 5.01
pEC50 [13]: 5.38
MEF/DKO cells killed [14]: 20-35%
Plasma stability (T = 1 h) [15]: 80%
Microsomal Stability (T = 1 h) [16]: 89%
signs of toxicity ([17]; 72 μmol/kg and even 120 μmol/kg): no significant signs of toxicity
Tox [17]: 0
pIC50 ([8]; read-out: IC50 FPA Bcl-XL): 5.46

1D ^1H-NMR Binding Assay (BCL-XL) [1]: +++
times/fold more potent than Apogossypol, FP Bcl-2 ([9]; vs Apogossypol): approximately 8
times/fold more potent than Apogossypol, FP Mcl-1 ([10]; vs Apogossypol): ~5
times more potent than Apogossypol, ITC Bcl-XL ([12]; vs Apogossypol): 10
pEC50 [2, 18]: 5.46
pEC50 [4, 19]: 6.17
pEC50 [6, 20]: 5.26 to 5.52
Cell Permeability [7]: Medium
pIC50 [8, 21]: 6.72
times more effective than Apogossypol, FP Bcl-XL ([8]; vs Apogossypol): ~20
Compound: Cc1cc2c(C(=O)Cc3ccccc3)c(O)c(O)cc2c(O)c1-c1c(C)cc2c(C(=O)Cc3ccccc3)c(O)c(O)cc2c1O [Compound I, 1,1′-(1,1′,6,6′,7,7′-hexahydroxy-3,3′-dimethyl-2,2′-binaphthyl-5,5′-diyl)bis(2-phenylethanone)]
fold more potent than Apogossypol, PC3ML ([3]; vs Apogossypol): 2-5
times more potent than Apogossypol, H460 ([4]; vs Apogossypol): 4-5
pEC50 [5]: 5.59
reduction of spleen weight ([17]; groups of six mice, compound I): ~40%
reduction in spleen weight ([17]; single BCL-2 transgenic mouse, 60 μmmol/kg): 40%

Compound: Cc1cc2c(C(=O)NCC3CCCCC3)c(O)c(O)cc2c(O)c1-c1c(C)cc2c(C(=O)NCC3CCCCC3)c(O)c(O)cc2c1O [Compound 8m, N^5,N^5′-bis(cyclohexylmethyl)-1,1′,6,6′,7,7′-hexahydroxy-3,3′-dimethyl-2,2′-binaphthyl-5,5′-dicarboxamide]
1D-^1H NMR ([1]; Table 3): +++
pIC50 [9]: 6.15
pIC50 [10]: 6.11
pIC50 [11]: 5.70
pKd [12]: 6.07
pEC50 ([2]; NCI-H1299, heading: EC50 H1299, Table 3, ATP-LITE assay, read-out: EC50 H1299): 5.32
pEC50 ([3]; Table 3, ATP-LITE assay, heading: EC50 PC3ML, read-out: EC50 PC3ML): 5.43
pEC50 ([4]; NCI-H460, Table 3, ATP-LITE assay, read-out: EC50 H460): 6.39
pEC50 ([6]; Table 3, Annexin V-FITC and propidium iodide assay, heading: EC50 RS11846, read-out: EC50 RS11846): 5.31
pEC50 ([13]; Table 3, Annexin V-FITC and propidium iodide assay): 6.05
MEF/DKO cells killed [14]: 20-35%
degraded after 1 hour incubation in rat plasma ([15]; 1 hour): 11%
Plasma stability (T = 1 h) [15]: 89%
degraded after 1 hour incubation in rat microsomal preparations ([16]; 1 hour): 10%
Microsomal Stability (T = 1 h) [16]: 90%
Tox [17]: 4+
pIC50 ([8]; read-out: IC50 FPA Bcl-XL): 5.96

1D ^1H-NMR Binding Assay (BCL-XL) [1]: +
pEC50 [2, 18]: 5.51
pEC50 ([3]; Table 9, read-out: PC3ML EC50): 5.47
pEC50 [4, 19]: 5.96
pEC50 [6, 20]: 5.35
Cell Permeability [7]: Low
pIC50 [8, 21]: 6.35
Compound: Cc1cc2c(C(=O)C3CCCC3)c(O)c(O)cc2c(O)c1-c1c(C)cc2c(C(=O)C3CCCC3)c(O)c(O)cc2c1O [Compound VI, (1,1′,6,6′,7,7′-hexahydroxy-3,3′-dimethyl-2,2′-binaphthyl-5,5′-diyl)bis(cyclopentylmethanone)]
pEC50 [5]: 5.40

Compound: Cc1cc2c(C(=O)C(C)(C)C)c(O)c(O)cc2c(O)c1-c1c(C)cc2c(C(=O)C(C)(C)C)c(O)c(O)cc2c1O [Compound XVIII, 1,1′-(1,1′,6,6′,7,7′-hexahydroxy-3,3′-dimethyl-2,2′-binaphthyl-5,5′-diyl)bis(2,2-dimethylpropan-1-one)]
1D ^1H-NMR Binding Assay (BCL-XL) [1]: ++
pEC50 ([6]; read-out: RS11846 EC50 (Annexin V- and propidium iodide assay), Table 9): 4.83
Cell Permeability [7]: Medium
